Columns and labels:
GLP1R = details: higher at GLP1R; cited from earlier work
Source text: Noteworthy, the in vitro binding affinity for SAR425899 at the GLP1R was ~ fivefold higher than at the GCGR. This ratio of binding capacities has been chosen to prevent unwanted glucagon effects like increase of blood glucose. In fact, an increase of blood glucose has not been observed so far in a clinical setting. […] The exposure achieved with this dose in humans, however, might be too low to ...

[1] = Liver volume on CT images; format: in vivo, human; details: for Liver volume change: Fig. 2B
Description: Both factors could potentially quantitatively impact the binding of [^68Ga]Ga-DO3A-Tuna-2 in the liver. Thus, the SUV55min at follow-up investigation was proportionally corrected for the decrease in liver volume compared to baseline. Additionally, SUV55min at baseline was corrected to the plasma glucagon value of the individual at follow-up to enable direct comparison between the PET assessments.
Marked weight loss and glucose lowering, as observed in this study, may have rapid and meaningful effects on the hepatic volume in short time periods, due primarily to the depletion of liver glycogen, which in turn bind large amounts of water. A reduction of the liver volume due to decrease in glycogen and water could likely affect the PET data by increasing the hepatocyte density (and in turn the GCGR density) per voxel. The liver volume was therefore assessed on CT images, and the [^68Ga]Ga-DO3A-Tuna-2 liver uptake SUV55min data corrected for the corresponding change in hepatic volume on an individual level. However, this correction may also introduce errors especially since there are inhomogeneities in GCGR expression levels in different parts of the liver (Fig. 3A,C,E). Furthermore, this correction assumes negligible changes on GCGR expression on hepatocytes over time. The occupancy data before the different corrections are therefore reported separately in Fig. 4C,D. Further corrections regarding the potentially non-isotropic GCGR expression could be attempted, but regardless the impact on the occupancy is expected to be low, while potentially introducing noise to the assessment. [^68Ga]Ga-DO3A-Exendin-4 uptake in pancreas is not expected to require correction, as no similar mechanism for rapid volume change is present in pancreas.

human GCGR = molecular target: T1, human GCGR (Homo sapiens, UniProt P47871); assay: In vitro displacement of [^68Ga]Ga-DO3A-Tuna-2 in HEK293 cells overexpressing the human GCGR; format: binding; details: pre-treatment with 50 µM, three independent experiments
T1 construct: expressed in transfected cells; host or cells: HEK293
T1 sequence (P47871 26-477): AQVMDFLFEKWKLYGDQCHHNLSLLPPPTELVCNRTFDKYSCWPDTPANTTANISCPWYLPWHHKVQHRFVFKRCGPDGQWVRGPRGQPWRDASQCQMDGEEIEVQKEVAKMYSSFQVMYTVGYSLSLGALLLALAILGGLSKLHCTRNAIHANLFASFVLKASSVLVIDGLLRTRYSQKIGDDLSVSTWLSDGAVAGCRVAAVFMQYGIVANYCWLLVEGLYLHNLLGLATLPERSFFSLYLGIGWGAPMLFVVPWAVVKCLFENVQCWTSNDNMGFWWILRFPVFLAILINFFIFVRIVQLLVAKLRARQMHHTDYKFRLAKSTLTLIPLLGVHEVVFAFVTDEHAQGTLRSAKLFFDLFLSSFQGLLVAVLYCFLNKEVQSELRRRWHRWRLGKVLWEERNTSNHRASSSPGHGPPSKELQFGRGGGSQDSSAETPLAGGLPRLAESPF
Description: Figure 5 [^68Ga]Ga-DO3A-Tuna-2 was displaced by SAR525899 in vitro. HEK293 cells overexpressing the human GCGR were incubated with either [^68Ga]Ga-DO3A-Tuna-2 alone, or following pre-treatment with 50 µM SAR525899. Data from three independent repeated experiments. Stars indicate p < 0.001 as assessed by a Students t-test.

[2] = Plasma pharmacokinetics of SAR425899 (LC-MS/MS); details: human, in vivo, sc, 0.2 mg
Description: Blood samples were collected at multiple time points after the last dose on Day 20 for measurement of SAR425899 in plasma using a liquid chromatography with tandem mass spectrometry (LC–MS/MS) method. Peak plasma concentrations (Cmax), time to Cmax (tmax) and area under the plasma concentration versus time curve for the last measurable plasma concentration (AUC0–last) were calculated using noncompartmental methods.

For `CCCCCCCCCCCCCCCC(=O)N[C@@H](CCC(=O)N[C@@H](CCC(=O)NCCCC[C@H](NC(=O)[C@H](CCC(N)=O)NC(=O)[C@H](CCCCN)NC(=O)[C@H](CO)NC(=O)[C@H](CC(C)C)NC(=O)[C@H](CC(=O)O)NC(=O)[C@H](CO)NC(=O)[C@@H](NC(=O)[C@H](Cc1ccccc1)NC(=O)[C@@H](NC(=O)CNC(=O)[C@H](CCC(N)=O)NC(=O)[C@@H](CO)NC(=O)[C@@H](N)Cc1c[nH]cn1)[C@@H](C)O)[C@@H](C)O)C(=O)N[C@@H](CCC(=O)O)C(=O)N[C@@H](CO)C(=O)N[C@@H](CCCCN)C(=O)N[C@@H](C)C(=O)N[C@@H](C)C(=O)N[C@@H](CCC(N)=O)C(=O)N[C@@H](CC(=O)O)C(=O)N[C@@H](Cc1ccccc1)C(=O)N[C@H](C(=O)N[C@@H](CCC(=O)O)C(=O)N[C@@H](Cc1c[nH]c2ccccc12)C(=O)N[C@@H](CC(C)C)C(=O)N[C@@H](CCCCN)C(=O)N[C@@H](C)C(=O)NCC(=O)NCC(=O)N1CCC[C@H]1C(=O)N[C@@H](CO)C(=O)N[C@@H](CO)C(=O)NCC(=O)N[C@@H](C)C(=O)N1CCC[C@H]1C(=O)N1CCC[C@H]1C(=O)N1CCC[C@H]1C(=O)N[C@@H](CO)C(N)=O)[C@@H](C)CC)C(=O)O)C(=O)O` [SAR425899], the “in vitro binding affinity at the GLP1R relative to the GCGR” value (GLP1R) is listed as “~ fivefold”, the Liver volume change ([1]; 0.12mg) is listed as -0.8% and the Liver volume change ([1]; 0.2mg) is listed as -10.4%. The “decrease in liver volume” value ([1]; under treatment with SAR425899, average (SD)) was 10.4 (6.1) %, the “liver volume at follow up” value ([1]; under treatment with SAR425899, mean (SD), baseline 2.14 (0.45) dm^3) was 1.91 (0.36) dm^3 and the “displacement of [^68Ga]Ga-DO3A-Tuna-2” value (human GCGR; p < 0.001) was “competes for the same binding site”. For the same compound, the “displacement of [^68Ga]Ga-DO3A-Tuna-2” value (human GCGR; p < 0.001, listed as SAR525899) was “displaced”, the AUC(0-t) [2] was 217 ng·h/mL and the Cmax [2] was 25.1 ng/mL. The Tmax [2] was 7.62 h.

— publication PMC7542159, “Receptor occupancy of dual glucagon-like peptide 1/glucagon receptor agonist SAR425899 in individuals with type 2 diabetes” (Scientific Reports, 2020)
